In US9474790B2, “Stable, protracted GLP-1/glucagon receptor co-agonists for medical use” (Novo Nordisk A/S, priority 2013, dated 2016):
Numbered stars: 1 amine (or outer) side, 2 acyl side, 3 side chain; on linkers, the order of the positions; unused ones are H or OH. Square brackets hold non-standard residues; d marks the D form. Side chains are listed from the residue outwards. Peptide text beside a SMILES is read from it. * marks the point of attachment. C18 diacid = O=C(O)CCCCCCCCCCCCCCCCC(=O)*; γGlu = O=C(O)[C@H](CCC(=O)[*:2])N[*:1]; Ac4c = NC1(C(=O)O)CCC1; AEEA = NCCOCCOCC(=O)O; Aib = CC(C)(N)C(=O)O

target: T1, human GLP-1 receptor (Homo sapiens, UniProt P43220); assay: GLP-1 receptor binding, 125I-GLP-1 displacement SPA on isolated membranes; details: displacement of 125I-GLP-1 from membranes; read-out: IC50 GLP-1R
T1 construct: expressed in transfected cells; host or cells: BHK cells (parent BHKTS13), clone FCW467-12A/KZ10-1, with CRE luciferase
T1 sequence (P43220 24-463): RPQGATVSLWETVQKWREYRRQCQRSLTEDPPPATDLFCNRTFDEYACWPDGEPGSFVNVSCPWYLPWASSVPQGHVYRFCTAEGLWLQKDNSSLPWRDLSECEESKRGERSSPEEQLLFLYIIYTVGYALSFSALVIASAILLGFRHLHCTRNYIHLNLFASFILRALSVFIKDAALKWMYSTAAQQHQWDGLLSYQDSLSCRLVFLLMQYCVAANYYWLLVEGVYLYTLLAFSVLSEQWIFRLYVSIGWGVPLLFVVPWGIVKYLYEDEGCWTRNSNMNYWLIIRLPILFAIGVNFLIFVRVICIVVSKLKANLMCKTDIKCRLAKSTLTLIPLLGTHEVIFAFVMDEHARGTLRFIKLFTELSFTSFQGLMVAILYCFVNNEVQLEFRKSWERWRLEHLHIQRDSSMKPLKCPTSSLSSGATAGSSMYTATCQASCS
Procedure, shortened: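 Test derivatives, serially diluted, competed with 125I-GLP-1(7-36)NH2 for the human GLP-1 receptor on BHK membranes, read by WGA-bead scintillation proximity after 2 h at 30°C, pH 7.4 HEPES/EGTA/MgCl2 buffer. Final serum albumin was either ≤0.001% or 2.0%; IC50 from non-linear fit.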

IC50 [nM] | Structure (SMILES)
0.2 | CC(C)C[C@H](NC(=O)[C@H](Cc1ccc(O)cc1)NC(=O)[C@H](CCCNC(=N)N)NC(=O)[C@H](CO)NC(=O)[C@H](CC(C)C)NC(=O)[C@H](CC(=O)O)NC(=O)[C@H](CO)NC(=O)[C@@H](NC(=O)[C@H](Cc1ccccc1)NC(=O)[C@@H](NC(=O)CNC(=O)[C@H](CCC(N)=O)NC(=O)C1(NC(=O)[C@@H](N)Cc2c[nH]cn2)CCC1)[C@@H](C)O)[C@@H](C)O)C(=O)N[C@@H](CCC(=O)O)C(=O)N[C@@H](CO)C(=O)N[C@@H](CCCNC(=N)N)C(=O)N[C@@H](CCCNC(=N)N)C(=O)N[C@@H](C)C(=O)N[C@@H](CCCNC(=N)N)C(=O)N[C@@H](CCC(=O)O)C(=O)N[C@@H](Cc1ccccc1)C(=O)N[C@H](C(=O)N[C@@H](CCC(N)=O)C(=O)N[C@@H](Cc1c[nH]c2ccccc12)C(=O)N[C@@H](CC(C)C)C(=O)N[C@@H](CC(C)C)C(=O)N[C@@H](CCCCNC(=O)CC[C@H](NC(=O)CC[C@H](NC(=O)COCCOCCNC(=O)COCCOCCNC(=O)CC[C@H](NC(=O)CC[C@H](NC(=O)CCCCCCCCCCCCCCCCC(=O)O)C(=O)O)C(=O)O)C(=O)O)C(=O)O)C(=O)N[C@H](C(N)=O)[C@@H](C)O)C(C)C [Example 59, N^ε28-[(4S)-4-carboxy-4-[[(4S)-4-carboxy-4-[[2-[2-[2-[[2-[2-[2-[[(4S)-4-carboxy-4-[[(4S)-4-carboxy-4-(17-carboxyheptadecanoylamino)butanoyl]amino]butanoyl]amino]ethoxy]ethoxy]acetyl]amino]ethoxy]ethoxy]acetyl]amino]butanoyl]amino]butanoyl]-[Acb2,Leu10,Arg12,Glu15,Arg20,Glu21,Leu27,Lys28]-Glucagon amide] (H-H[Ac4c]QGTFTSDLSRYLESRRAREFVQWLLK([γGlu-γGlu-AEEA-AEEA-γGlu-γGlu-C18 diacid])T-NH2; N-terminus assumed)
0.3 | CC(C)C[C@H](NC(=O)[C@H](Cc1ccc(O)cc1)NC(=O)[C@H](CCCCN)NC(=O)[C@H](CO)NC(=O)[C@H](CC(C)C)NC(=O)[C@H](CC(=O)O)NC(=O)[C@H](CO)NC(=O)[C@@H](NC(=O)[C@H](Cc1ccccc1)NC(=O)[C@@H](NC(=O)CNC(=O)[C@H](CCC(N)=O)NC(=O)C1(NC(=O)[C@@H](N)Cc2c[nH]cn2)CCC1)[C@@H](C)O)[C@@H](C)O)C(=O)N[C@@H](CCC(=O)O)C(=O)N[C@@H](CO)C(=O)N[C@@H](CCCNC(=N)N)C(=O)N[C@@H](CCCNC(=N)N)C(=O)N[C@@H](C)C(=O)N[C@@H](CCCNC(=N)N)C(=O)N[C@@H](CCC(=O)O)C(=O)N[C@@H](Cc1ccccc1)C(=O)N[C@H](C(=O)N[C@@H](CCC(N)=O)C(=O)N[C@@H](Cc1c[nH]c2ccccc12)C(=O)N[C@@H](CC(C)C)C(=O)N[C@@H](CC(C)C)C(=O)N[C@@H](CCCCNC(=O)CC[C@H](NC(=O)CC[C@H](NC(=O)COCCOCCNC(=O)COCCOCCNC(=O)CC[C@H](NC(=O)CC[C@H](NC(=O)CCCCCCCCCCCCCCCCC(=O)O)C(=O)O)C(=O)O)C(=O)O)C(=O)O)C(=O)N[C@H](C(N)=O)[C@@H](C)O)C(C)C [Example 61, N^ε28-[(4S)-4-carboxy-4-[[(4S)-4-carboxy-4-[[2-[2-[2-[[2-[2-[2-[[(4S)-4-carboxy-4-[[(4S)-4-carboxy-4-(17-carboxyheptadecanoylamino)butanoyl]amino]butanoyl]amino]ethoxy]ethoxy]acetyl]amino]ethoxy]ethoxy]acetyl]amino]butanoyl]amino]butanoyl]-[Acb2,Leu10,Glu15,Arg20,Glu21,Leu27,Lys28]-Glucagon amide] (H-H[Ac4c]QGTFTSDLSKYLESRRAREFVQWLLK([γGlu-γGlu-AEEA-AEEA-γGlu-γGlu-C18 diacid])T-NH2; N-terminus assumed)
0.2 | CC(C)C[C@H](NC(=O)[C@H](Cc1ccc(O)cc1)NC(=O)[C@H](CCCNC(=N)N)NC(=O)[C@H](CO)NC(=O)[C@H](CC(C)C)NC(=O)[C@H](CC(=O)O)NC(=O)[C@H](CO)NC(=O)[C@@H](NC(=O)[C@H](Cc1ccccc1)NC(=O)[C@@H](NC(=O)CNC(=O)[C@H](CCC(N)=O)NC(=O)C(C)(C)NC(=O)[C@@H](N)Cc1c[nH]cn1)[C@@H](C)O)[C@@H](C)O)C(=O)N[C@@H](CC(=O)O)C(=O)N[C@@H](C)C(=O)N[C@@H](CCCNC(=N)N)C(=O)N[C@@H](CCCNC(=N)N)C(=O)N[C@@H](C)C(=O)N[C@@H](CCCNC(=N)N)C(=O)N[C@@H](CC(=O)O)C(=O)N[C@@H](Cc1ccccc1)C(=O)N[C@H](C(=O)N[C@@H](CCC(N)=O)C(=O)N[C@@H](Cc1c[nH]c2ccccc12)C(=O)N[C@@H](CC(C)C)C(=O)N[C@@H](CC(C)C)C(=O)N[C@@H](CCCCNC(=O)CC[C@H](NC(=O)CC[C@H](NC(=O)CC[C@H](NC(=O)CCCCCCCCCCCCCCCCC(=O)O)C(=O)O)C(=O)O)C(=O)O)C(=O)N[C@H](C(N)=O)[C@@H](C)O)C(C)C [Example 62, N^ε28-[(4S)-4-carboxy-4-[[(4S)-4-carboxy-4-[[(4S)-4-carboxy-4-(17-carboxyheptadecanoylamino)butanoyl]amino]butanoyl]amino]butanoyl]-[Aib2,Leu10,Arg12,Ala16,Arg20,Leu27,Lys28]-Glucagon amide] (H-H[Aib]QGTFTSDLSRYLDARRARDFVQWLLK([γGlu-γGlu-γGlu-C18 diacid])T-NH2; N-terminus assumed)
